We go through 21 molecules from US8796246B2, “9, 10-secopregnane derivative and pharmaceutical” (Nippon Shinyaku Co., Ltd., priority 2006, dated 2014).

Data set [1] deals with human acute myelogenous leukemia cell line HL-60. Kind of data set: Ability to induce differentiation of HL-60 cells (oxygen radical production after phorbol ester, WST-1). The format is cell-based. The following applies: 72 hours incubation, then WST-1 and phorbol 12,13-didecanoate for 4 hours, absorbance at 450 nm. The text has this:
It is known that the human acute myelogenous leukemia cell line HL-60is differentiated into neutrophil-like cells by active vitamin D or the like. Thus, the cells after the differentiation begin to express a surface marker such as CD11and CD32and, at the same time, they produce an oxygen radical by stimulation with a phorbol ester or the like. In this test, the above-mentioned property was utilized. As an index of the ability to induce differentiation of the HL-60cells, the amount of the oxygen radical produced by stimulation with a phorbol ester was measured, and the compounds of the invention mentioned in Examples were compared with maxacalcitol with respect to the vitamin D3activity thereof. In use of commercial reagents and kits, if any, the indications attached thereto were referred to.
HL-60cells (supplied from ATCC) were seeded on a 96-well plate at 5×10^3cells/100μL/well and a test compound in two-fold dilution series from 10^−7M was added to the second to the twelfth rows (maximum concentration: the second row). The first row was used for blank. After incubation for 72 hours under a moisturized condition in the presence of 5% CO2 at 37° C. using a CO2 incubator, 10 μL of PBS containing 50 mM WST-1 (manufactured by Takara Bio) and 10 μM phorbol 12,13-didecanoate (manufactured by SIGMA) were added to each well followed by further incubation for 4 hours. Absorbance (reference wavelength: […]) at […] of the WST-1 formazane dye generated by conversion from WST-1 by oxygen radical produced from the differentiated HL-60 cells was measured by a Benchmark microplate reader (manufactured by BioRad). An absorbance meter control software MPM3 (manufactured by BioRad) was used and, from a concentration-absorbance curve, the 50%-maximal effective concentration (hereinafter, referred to as “EC50”) of each was determined by a logistic curve regression.

Data set [2] can be described thus: Metabolic rate in human liver microsome. The format is in vitro ADME. The conditions noted are these: pooled human liver microsome 1 mg/mL protein, NADPH-regenerating system, 37° C., 2-60 minutes, HPLC. As to the method: The compounds of the invention mentioned in Examples and maxacalcitol were compared with each other with respect to the metabolic rate in human liver microsome.
As to the pooled human liver microsome (HHM-0323), those manufactured by Tissue Transformation Technologies were used. A 0.25 M potassium phosphate buffer (pH 7.4) (200 μL), 5 μL of a 250 μM solution of each compound to be tested in DMSO, 50 μL of an NADPH-regenerating system (where 20 mg of β-NADP^+, 70 mg of glucose-6-phosphate, 40 units of glucose-6-phosphate dehydrogenase and 20 mg of magnesium chloride were dissolved in 1 mL of distilled water) and 220 μL of distilled water were added to a microtube and the mixture was subjected to a preincubation for 5 minutes at 37° C. Reaction was started by an addition of 25 μL of human liver microsome (final concentration of protein: 1 mg/mL). Incubation was performed for 2, 10, 30 or 60 minutes and the reaction was stopped by an addition of 500 μL of acetonitrile. After centrifugation at 13,000 rpm for 5 minutes, each test compound in the supernatant (25 μL) was measured by HPLC under the following conditions.
Inertsil ODS-3 (4.6×150 mm; GL Science) was used as a column. With regard to the mobile phase, a solution A (acetonitrile/0.1% aqueous solution of ammonium acetate=10/90) and a solution B (acetonitrile/0.1% aqueous solution of ammonium acetate=90/10) were used under the linear gradient conditions mentioned in Tables 5 to 7. The column temperature, the flow rate and the wavelength for detection were set at 40° C., 1.0 mL/min. and UV 250 or 270 nm, respectively.
The compound mentioned in Example 38 was analyzed under the condition shown in Table 6; the compounds mentioned in Examples 55, 56, 68, 69, 72 and 73 were under the condition shown in Table 7; and the other compounds were under the condition shown in Table 5.
The compounds described in Examples 40, 43 to 48, 50, 55, 56, 58, 60, 61, 63 and 65 to 73 were analyzed under the condition of UV 250 nm; and the other compounds were under the condition of UV 270 nm.
From the HPLC test results as above, the metabolic rate of the test compound was calculated.

By EC50 is commonly meant the concentration at which the effect is half-maximal. Low values mean higher potency in that assay, high ones lower potency in that assay.

`C=C1C(=CC=C2CCCC3(C)C2CCC3C(C)OC(=O)CCC(C)(O)C(F)(F)F)CC(O)CC1O` (single isomer, unassigned) [Compound of Example 35, (1S,3R,20S)-20-[(4R) or (4S)-5,5,5-trifluoro-4-hydroxy-4-methylpentanoyloxy]-9,10-secopregna-5Z,7E,10(19)-triene-1,3-diol] gave an EC50 in data set [1] of 0.82 nM. The “Metabolic Rate” value in data set [2] came out at 43 pmol/min/mg.

In data set [1], `C=C1C(=CC=C2CCCC3(C)C(C(C)OC(=O)CCC(C)(O)C(F)(F)F)=CCC23)CC(O)CC1O` (single isomer, unassigned) [Compound of Example 71, (1S,3R,20S)-20-[(4S) or (4R)-5,5,5-trifluoro-4-hydroxy-4-methylpentanoyloxy]-9,10-secopregna-5Z,7E,10(19),16-tetraene-1,3-diol] had a half-maximal effective concentration (EC50) of 1.1 nM. For the same molecule, in data set [2], the “Metabolic Rate” value is 40 pmol/min/mg.

For `C=C1C(=CC=C2CCCC3(C)C2CCC3C(C)OC(=O)CCCC(C)(C)O)CC(O)CC1O` [Compound of Example 3, (1S,3R,20S)-20-(5-hydroxy-5-methylhexanoyloxy)-9,10-secopregna-5Z,7E,10(19)-triene-1,3-diol], in data set [1], the EC50 was 4.5 nM. For the same molecule, in data set [2], the “Metabolic Rate” value was determined as 22 pmol/min/mg.

The molecule `C=C1C(=CC=C2CCCC3(C)C2CCC3C(C)OC(=O)CC(C)(O)C(F)(F)F)CC(O)CC1O` [Compound of Example 4, (1S,3R,20S)-20-(4,4,4-trifluoro-3-hydroxy-3-methylbutanoyloxy)-9,10-secopregna-5Z,7E,10(19)-triene-1,3-diol] gave a half-maximal effective concentration (EC50) in data set [1] of 0.31 nM.

In turn, `C=C1C(=CC=C2CCCC3(C)C2CCC3C(C)OC(=O)CC(O)C(C)C)CC(O)CC1O` [Compound of Example 5, (1S,3R,20S)-20-(3-hydroxy-4-methylpentanoyloxy)-9,10-secopregna-5Z,7E,10(19)-triene-1,3-diol] had an EC50 in data set [1] of 0.86 nM.

Turning to `C=C1C(=CC=C2CCCC3(C)C2CCC3C(C)OC(=O)CC(O)(C(F)(F)F)C(F)(F)F)CC(O)CC1O` [Compound of Example 7, (1S,3R,20S)-20-[4,4,4-trifluoro-3-hydroxy-3-(trifluoromethyl)butanoyloxy]-9,10-secopregna-5Z,7E,10(19)-triene-1,3-diol], the EC50 in data set [1] was 0.38 nM.

As to `C=C1C(=CC=C2CCCC3(C)C2CCC3C(C)OC(=O)C=CC(C)(C)O)CC(O)CC1O` [Compound of Example 8, (1S,3R,20S)-20-[(2E)-4-hydroxy-4-methylpent-2-enoyloxy]-9,10-secopregna-5Z,7E,10(19)-triene-1,3-diol], the EC50 in data set [1] amounted to 3.4 nM. The “Metabolic Rate” value in data set [2] came out at 38 pmol/min/mg.

For the molecule `C=C1C(=CC=C2CCCC3(C)C2CCC3C(C)OC(=O)C=CC(O)(CC)CC)CC(O)CC1O` [Compound of Example 10, (1S,3R,20S)-20-[(2E)-4-ethyl-4-hydroxyhex-2-enoyloxy]-9,10-secopregna-5Z,7E,10(19)-triene-1,3-diol], the EC50 in data set [1] came to 0.99 nM. Moreover, the “Metabolic Rate” value in data set [2] was 58 pmol/min/mg.

In data set [1], `C=C1C(=CC=C2CCCC3(C)C2CCC3C(C)OC(=O)CC(O)(CC)CC)CC(O)CC1O` [Compound of Example 12, (1S,3R,20S)-20-(3-ethyl-3-hydroxypentanoyloxy)-9,10-secopregna-5Z,7E,10(19)-triene-1,3-diol] returned an EC50 of 1.5 nM.

In the case of `C=C1C(=CC=C2CCCC3(C)C2CCC3C(C)OC(=O)CCC(O)(CC)CC)CC(O)CC1O` [Compound of Example 13, (1S,3R,20S)-20-(4-ethyl-4-hydroxyhexanoyloxy)-9,10-secopregna-5Z,7E,10(19)-triene-1,3-diol], it took 0.53 nM to reach a half-maximal effect in data set [1] (EC50). Moreover, the “Metabolic Rate” value in data set [2] is on record as 38 pmol/min/mg.

For `C=C1C(=CC=C2CCCC3(C)C2CCC3C(C)OC(=O)CN(C)CC(C)(C)O)CC(O)CC1O` [Compound of Example 19, (1S,3R,20S)-20-[N-(2-hydroxy-2-methylpropyl)-N-methyl-2-aminoacetyloxy]-9,10-secopregna-5Z,7E,10(19)-triene-1,3-diol], it took 2.4 nM to reach a half-maximal effect in data set [1] (EC50).

Consider `C=C1C(=CC=C2CCCC3(C)C2CCC3C(C)OC(=O)CCC2(O)CCCC2)CC(O)CC1O` [Compound of Example 20, (1S,3R,20S)-20-[3-(1-hydroxycyclopentyl)propanoyloxy]-9,10-secopregna-5Z,7E,10(19)-triene-1,3-diol], for which, in data set [1], the response was half-maximal at 1.4 nM (EC50). For the same molecule, in data set [2], the “Metabolic Rate” value came to 39 pmol/min/mg.

For the molecule `C=C1C(=CC=C2CCCC3(C)C2CCC3C(C)OC(=O)CC(=O)C(C)(C)O)CC(O)CC1O` [Compound of Example 27, (1S,3R,20S)-20-(4-hydroxy-4-methyl-3-oxo-pentanoyloxy)-9,10-secopregna-5Z,7E,10(19)-triene-1,3-diol], a half-maximal effect in data set [1] (EC50) was put at 4.1 nM.

The molecule `C=C1C(=CC=C2CCCC3(C)C2CCC3C(C)OC(=O)CC(=O)C(O)(CC)CC)CC(O)CC1O` [Compound of Example 28, (1S,3R,20S)-20-(4-ethyl-4-hydroxy-3-oxo-hexanoyloxy)-9,10-secopregna-5Z,7E,10(19)-triene-1,3-diol] gave an EC50 in data set [1] of 1.7 nM.

Regarding `C=C1C(=CC=C2CCCC3(C)C2CCC3C(C)OC(=O)CCCC(O)(CC)CC)CC(O)CC1O` [Compound of Example 34, (1S,3R,20S)-20-(5-hydroxy-5-ethylheptanoyloxy)-9,10-secopregna-5Z,7E,10(19)-triene-1,3-diol], the 50% effective concentration (EC50) in data set [1] was found to be 4.2 nM. Besides, the “Metabolic Rate” value in data set [2] is 36 pmol/min/mg.

In data set [1], `C=C1C(=CC=C2CCCC3(C)C2CCC3C(C)OC(=O)CCCC(C)(O)C(F)(F)F)CC(O)CC1O` [Compound of Example 37, (1S,3R,20S)-20-(6,6,6-trifluoro-5-hydroxy-5-methylhexanoyloxy)-9,10-secopregna-5Z,7E,10(19)-triene-1,3-diol] registered a 50% effective concentration (EC50) of 1.1 nM. Moreover, the “Metabolic Rate” value in data set [2] was found to be 36 pmol/min/mg.

Molecule `C=C1C(=CC=C2CCCC3(C)C2CCC3C(C)OC(=O)CC(=O)C(C)(O)C(F)(F)F)CC(O)CC1O` [Compound of Example 38, (1S,3R,20S)-20-(5,5,5-trifluoro-4-hydroxy-4-methyl-3-oxopentanoyloxy)-9,10-secopregna-5Z,7E,10(19)-triene-1,3-diol] gave a concentration for a half-maximal effect (EC50) in data set [1] of 2.3 nM. For the same molecule, in data set [2], the “Metabolic Rate” value turned out to be 33 pmol/min/mg.

In data set [1], `C=C1C(=CC=C2CCCC3(C)C(C(C)OC(=O)CCC(C)(C)O)=CCC23)CC(O)CC1O` [Compound of Example 39, (1S,3R,20S)-20-(4-hydroxy-4-methylpentanoyloxy)-9,10-secopregna-5Z,7E,10(19),16-tetraene-1,3-diol] yielded an EC50 of 1.4 nM. For the same molecule, in data set [2], the “Metabolic Rate” value stood at 26 pmol/min/mg.

In data set [1], `CC(OC(=O)CCC(C)(C)O)C1CCC2C(=CC=C3CC(O)CC(O)C3)CCCC21C` [Compound of Example 40, (1R,3R,20S)-19-nor-20-(4-hydroxy-4-methylpentanoyloxy)-9,10-secopregna-5Z,7E-diene-1,3-diol] displayed an EC50 of 1.6 nM. In data set [2], the “Metabolic Rate” value came to 65 pmol/min/mg.

The molecule `C=C1C(O)CC(=CC=C2CCCC3(C)C2CCC3C(C)OC(=O)CCCC(C)(C)O)CC1O` [Compound of Example 57, (1R,3R,20S)-2-methylene-19-nor-20-(5-hydroxy-5-methylhexanoyloxy)-9,10-secopregna-5Z,7E-diene-1,3-diol] registered an EC50 in data set [1] of 0.53 nM.

In the case of “(1S,3R,20S)-20-(5-hydroxy-5-methylheptanoyloxy)-9,10-secopregna-5Z,7E,10(19)-triene-1,3-diol [Compound of Example 11]”, a half-maximal response in data set [1] (EC50) required 2.2 nM.
